The values below come from patent US7238703B2, “Azabicyclic, azatricyclic and azaspirocyclic derivatives of aminocyclohexane NMDA, 5HT3, and neuronal nicotinic receptor antagonists” (priority 2002, dated 2007).

Series [1] addresses NMDA receptor ([3H]-(+)-MK-801 site). Description: [3H]-(+)-MK-801 receptor binding, rat cortex membranes. The following applies: for Ki: glycine 10 μM, glutamate 10 μM, mean, n=3. The method, then: Male Sprague-Dawley rats (200-250 g) were decapitated and their brains were removed rapidly. The cortex was dissected and homogenized in 20 volumes of ice-cold 0.32 M sucrose using a glass-Teflon homogenizer. The homogenate was centrifuged at 1000× g for 10 min. The pellet was discarded and the supernatant centrifuged at 20,000× g for 20 min. The resulting pellet was re-suspended in 20 volumes of distilled water and centrifuged for 20 min at 8000× g. Then the supernatant and the buffy coat were centrifuged at 48,000× g for 20 min in the presence of 50 mM Tris-HCl, pH 8.0. The pellet was then re-suspended and centrifuged two to three more times at 48,000× g for 20 min in the presence of 50 mM Tris-HCl, pH 8.0. All centrifugation steps were carried out at 4° C. After resuspension in 5 volumes of 50 mM Tris-HCl, pH 8.0 the membrane suspension was frozen rapidly at −80° C.
On the day of assay the membranes were thawed and washed four times by resuspension in 50 mM Tris-HCl, pH 8.0 and centrifugation at 48,000× g for 20 min. and finally re-suspended in 50 mM Tris-HCl, pH 7.4. The amount of protein in the final membrane preparation (250-500 μg/ml) was determined according to the method of Lowry et al. (1951). Incubations were started by adding [^3H]-(+)-MK-801 (23.9 Ci/mmol, 5 nM, Dupont NEN) to vials with glycine (10 μM), glutamate (10 μM), and 125-250 μg protein (total volume 0.5 ml) and various concentrations of the agents tested (10 concentrations in duplicates). The incubations were continued at room temperature for 120 min (equilibrium was achieved under the conditions used). Non-specific binding was defined by the addition of unlabeled (+)-MK-801 (10 μM). Incubations were terminated using a Millipore filter system. The samples were rinsed twice with 4 ml of ice cold assay buffer over glass fibre filters (Schleicher & Schuell) under a constant vacuum. Following separation and rinse the filters were placed into scintillation liquid (5 ml; Ultima Gold) and radioactivity retained on the filters was determined with a conventional liquid scintillation counter (Hewlett Packard, Liquid Scintillation Analyser). […] Most antagonists were tested in 3 to 7 separate experiments.
IC50s in patch clamp and binding studies were calculated according to the four parameter logistic equation using the Grafit computer program (Erithacus Software, England). Ki value for binding studies were then determined according to Cheng and Prusoff. Binding values presented are means±SEM of 3-5 determinations (each performed in duplicate).

In series [2] the test system is tonic convulsions (MES). Nature of the series: Maximal electroshock (MES) anticonvulsive test. The following applies: Mus musculus, ip, read-out: MES ED50. In kind it is in vivo, mice. On the procedure:
(§1) NMR female mice (18-28 g) housed 5 per cage were used for the maximal electroshock (MES) and motor impairment tests. All animals were kept with water and food ad libitum under a 12 hour light-dark cycle (light on at 6 a.m.) and at a controlled temperature (20±0.5 °C.). All experiments were performed between 10 a.m. and 5 p.m. Tested agents were injected 30 min. i.p. before the induction of convulsions if not stated otherwise (see below). All compounds were dissolved in 0.9% saline.
(§2) The MES test was performed together with tests for myorelaxant action (traction reflex) and motor coordination (rotarod). For the traction reflex test mice were placed with their forepaws on a horizontal rod and were required to place all 4 paws on the wire within 10 seconds. To test ataxia (motor coordination) mice were placed on an accelerating rotarod and were required to remain on the rod for 1 minute. […] These tests were followed by MES (100 Hz, 0.5 second shock duration, 50 mA shock intensity, 0.9 ms impulse duration, Ugo Basile) applied through corneal electrodes. The presence of tonic convulsions was scored (tonic extension of hind paws with minimum angle to the body of 90[…]). The aim was to obtain ED50s for all parameters scored (anticonvulsive activity and motor side effects) with use of the Litchfield Wilcoxon test for quantal dose responses. Division of the ED50 for side effects (ataxia or myorelaxation) by the ED50 for antagonism of electroshock convulsions was used as a therapeutic index (TI).
(§3) ED50s are presented with 95% confidence limits (Cl). Pearson product moment correlation analysis (Sigma Stat, Jandel Scientific) was used to compare in vitro potencies and in vivo anticonvulsant activity.
Background: Protection in the maximal electroshock model is a classic sign of anticonvulsant action.

For series [3], the system named is traction reflex. Nature of the series: Myorelaxant action (traction reflex). In kind it is in vivo, mice. The following applies: for Myorelaxation ED50: NMR female mice, i.p., traction reflex, in mg/kg; for TI Myorelaxation: ED50 myorelaxation divided by ED50 MES. The method, then:
as §1, §2
(§4) Pearson product moment correlation analysis (Sigma Stat, Jandel Scientific) was used to compare in vitro potencies and in vivo anticonvulsant activity.

The nature of series [4]: Ataxia / motor coordination (rotarod). In kind it is in vivo, mice. The following applies: mouse, in vivo, ip; NMR female mice, accelerating rotarod. The method, then: as §1, §2, §3
Background: In the rotarod test animals must keep their balance on a rotating rod.

A short description of series [5]: Myorelaxant action (traction reflex). The following applies: mouse, in vivo, ip; NMR female mice, i.p., traction reflex; read-out: Myorelaxation ED50. In kind it is in vivo, mice. On the procedure:
as §1, §2, §4

Series [6] has as its system motor coordination (rotarod). Nature of the series: Ataxia / motor coordination (rotarod). The class given is in vivo, mice. The conditions noted are these: ED50 ataxia divided by ED50 MES. On the procedure: as §1, §2, §3
Series [7] deals with T1, NR1a/2A receptors (Homo sapiens, UniProt Q05586+Q12879).
T1 construct: expressed in transfected cells; host or cells: Xenopus laevis oocytes injected with subunit RNA
Description: NMDA receptor subtype expression in Xenopus oocytes, two-electrode voltage clamp. The class given is cell-based. The method, then: Mature female Xenopus laevis were anaesthetized in 0.2% Tricaine on ice for 15 min prior to surgery. Oocytes were removed and incubated in 2 mg/ml collagenase (type II) in Ca^2+-free oocyte Ringer solution (82.5 mM NaCl, 2 mM KCl, 2 mM MgCl2, 5 mM HEPES, pH 7.5) for 30 min. at room temperature and washed thoroughly with OR-2 (100 mM NaCl, 2 mM KCl, 1 mM MgCl2, 2 mM CaCl2, 5 mM HEPES, pH 7.5). The remaining follicle cell layer was removed manually with fine forceps and the oocytes were kept in OR-2. The RNA was dissolved in DEPC-treated, sterile distilled water. RNA for the NMDA NR1a subunit was mixed 1:1 with RNA for the NR2A subunit. Likewise neuronal nicotinic α4 RNA was mixed 1:1 with RNA for the β2 subunit. Fifty to 100 nanoliters of each RNA mixture were injected in the oocyte's cytoplasm using a Nanoliter Injector (World Precision Instruments). The oocytes were incubated at 19° C. in OR-2 for the following 3 to 6 days.
The electrophysiological responses were obtained using the standard two-electrode voltage-clamp method (GeneClamp 500 amplifier), 2-6 days after injection. […] Recordings were made in a custom made chamber with 2 to 3 second exchange times. The bath solution was prepared Ca^2+-free, to avoid Ca^2+-induced Cl^− currents (100 mM NaCl, 2 mM KCl, 5 mM HEPES, 2 mM BaCl2, pH 7.35). NMDA receptors were activated by the manual co-application of 1 mM Glutamate and 10 μM Glycine for 30-40 secs every 2 to 3 mins to oocytes clamped at −70 mV. Neuronal nicotinic receptors were activated by application of 100 μM acetylcholine for 20-30 secs every 2 to 3 mins to oocytes clamped at −70 mV. After obtaining stable control responses, full concentration-response curves with antagonists were obtained by preincubating 6-7 different concentrations at log 3 intervals.
Only results from stable cells were accepted for inclusion in the final analysis i.e. showing at least 50% recovery of responses to NMDA following removal of the antagonist tested. Despite this, recovery from drug actions wasn't always 100% because of minor rundown or runup in some cells. When present, this was always compensated by basing the % antagonism at each concentration on both control and recovery and assuming a linear time course for this rundown. All antagonists were assessed at steady-state blockade with 6 to 7 concentrations on at least 4 cells. Equilibrium blockade was achieved within 1 to 3 agonist applications, depending on antagonist concentration.
Kinetic experiments were performed by applying various concentrations of unsaturated amino-alkyl-cyclohexanes (normally 5 in a log 3 dosing regime) for 10-20 seconds in the continuous presence of glutamate (100 μM and glycine 10 μM) for 90-180 seconds in Xenopus oocytes expressing NR1a/2A receptors. The perfusion system used for these experiments was a modified oocyte carousel system which allows rapid wash in and wash out of agonist and antagonist with change times less than one second. Exponential fits were made using the program TIDA for windows and most responses were well fitted by a single exponential. This same system was used to access the voltage-dependency of blockade, but the bath solution contained flufenamic acid (100 μM) to block endogenous voltage-activated and Ca^2+ activated Cl^− currents. Also, Ba^2+ (2 mM) was replaced by low concentrations of Ca^2+ (0.2 mM). Following equilibrium blockade by higher concentrations of antagonist (normally around 10 times the IC50), five ramps were driven from −70 mV to +30 mV over two seconds. Similar ramps were driven in bath solutions and for glutamate without antagonist, both before antagonist application and following recovery of responses. The leak currents in the absence of glutamate were substrated from the glutamate and glutamate plus antagonist curves. Voltage-dependency was then determined by comparing the glutamate and glutamate plus antagonist curves.
On the technique in general: In two-electrode clamp one electrode senses voltage and the other passes current.

The mark [8] stands for this setting: Xenopus oocytes, N=6, read-out: NMDA IC50.

Counter-ions that a name gives are not always drawn. Like-named read-outs stand apart in the source and are kept apart here.

T1 sequence (Q12879 23-1464, other chains not shown): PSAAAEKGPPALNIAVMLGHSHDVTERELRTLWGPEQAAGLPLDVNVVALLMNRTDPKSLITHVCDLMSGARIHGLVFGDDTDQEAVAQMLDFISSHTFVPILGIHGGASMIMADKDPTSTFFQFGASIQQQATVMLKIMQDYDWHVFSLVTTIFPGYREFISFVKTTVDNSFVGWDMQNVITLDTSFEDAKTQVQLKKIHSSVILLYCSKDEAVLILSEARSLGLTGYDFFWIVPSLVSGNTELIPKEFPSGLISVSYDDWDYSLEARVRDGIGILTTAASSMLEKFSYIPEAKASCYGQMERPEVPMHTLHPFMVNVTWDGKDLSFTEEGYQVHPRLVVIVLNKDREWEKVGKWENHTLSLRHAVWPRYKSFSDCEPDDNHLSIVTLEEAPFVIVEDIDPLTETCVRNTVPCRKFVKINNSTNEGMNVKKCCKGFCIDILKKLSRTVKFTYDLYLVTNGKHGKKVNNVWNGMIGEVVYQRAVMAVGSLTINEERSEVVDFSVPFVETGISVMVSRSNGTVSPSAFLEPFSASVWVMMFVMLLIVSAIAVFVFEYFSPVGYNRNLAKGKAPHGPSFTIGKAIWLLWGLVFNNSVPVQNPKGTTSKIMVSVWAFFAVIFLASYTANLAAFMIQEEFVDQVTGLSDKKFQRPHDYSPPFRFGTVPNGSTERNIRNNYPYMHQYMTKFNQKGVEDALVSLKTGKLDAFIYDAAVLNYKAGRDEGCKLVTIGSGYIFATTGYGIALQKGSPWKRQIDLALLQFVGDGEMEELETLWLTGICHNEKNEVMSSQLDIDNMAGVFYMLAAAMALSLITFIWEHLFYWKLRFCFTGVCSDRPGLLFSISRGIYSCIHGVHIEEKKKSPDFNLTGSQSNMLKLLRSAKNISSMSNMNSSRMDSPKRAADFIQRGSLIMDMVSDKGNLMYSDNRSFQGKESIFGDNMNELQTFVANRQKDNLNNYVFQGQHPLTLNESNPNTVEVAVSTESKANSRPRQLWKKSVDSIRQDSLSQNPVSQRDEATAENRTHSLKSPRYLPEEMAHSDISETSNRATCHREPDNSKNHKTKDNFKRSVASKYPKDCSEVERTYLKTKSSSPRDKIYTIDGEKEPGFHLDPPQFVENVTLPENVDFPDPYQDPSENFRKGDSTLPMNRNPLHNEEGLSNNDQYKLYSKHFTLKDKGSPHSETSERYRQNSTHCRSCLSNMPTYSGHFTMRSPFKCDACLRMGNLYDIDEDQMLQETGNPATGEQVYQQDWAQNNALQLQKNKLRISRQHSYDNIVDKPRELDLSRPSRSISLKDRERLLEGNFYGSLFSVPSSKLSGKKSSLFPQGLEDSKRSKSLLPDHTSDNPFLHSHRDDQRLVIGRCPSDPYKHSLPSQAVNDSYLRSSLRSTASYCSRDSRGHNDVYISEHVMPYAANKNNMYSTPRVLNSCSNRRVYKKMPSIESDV

`CN1CC2(C)CC(C)(C)CC1(C)C2.Cl` (centres unmarked) [MRZ 2/1003, 1,3,3,5,6-Pentamethyl-6-azabicyclo [3.2.1]octane hydrochloride] had a Ki in series [1] of 7.4 µM. Moreover, the 50% effective dose (ED50) in series [2] is 16.2 mg/kg. Further, in series [3], the “Myorelaxation ED50” value is on record as 16.77. In series [4], this compound registered an ED50 at 30 min of 20.6 mg/kg.
For the compound `CC1(C)CC(C)(C)CC2(CCCN2)C1.Cl` [MRZ 2/1004, 7,7,9,9-Tetramethyl-1-azaspiro[4.5]decane hydrochloride], the Ki in series [1] is 10.5 µM. Also, the 50% effective dose (ED50) in series [2] (NMR female mice, i.p. 30 min before convulsions) is 24.1 mg/kg. Besides, the results for the ED50 at 30 min in series [5] and in series [4] were 27.5 mg/kg and 24 mg/kg, respectively. For the same compound, the “TI Myorelaxation” value in series [3] was found to be 1.14. For the same compound, the “TI Ataxia” value in series [6] is 1.00.
In series [1], `CC1(C)CC2(C)CNC(C)(C1)C2.Cl` (centres unmarked) [MRZ 2/1010, 1,3,3,5-Tetramethyl-6-azabicyclo [3.2.1]octane hydrochloride] returned an inhibitory constant (Ki) of 2.59 µM. This compound displayed an IC50 in series [7] of 0.76 µM. The Hill in series [7] (Xenopus oocytes expressing NR1a/2A, glutamate 100 μM, glycine 10 μM, -70 mV) is 0.63. The 50% effective dose (ED50) in series [2] was 5.91 mg/kg. For the same compound, the “Myorelaxation ED50” value in series [3] came out at 10.62. In series [4], this compound displayed an ED50 at 30 min of 24.9 mg/kg.
As for `CC1(C)CC(C)(C)CC2(CCCCN2)C1.Cl` [MRZ 2/1013, 8,8,10,10-Tetramethyl-1-azaspiro[5.5]undecane hydrochloride], the inhibitory constant (Ki) in series [1] was found to be 3.64 µM. In addition, in series [7], 4.72 µM corresponded to half-maximal inhibition (IC50). For the same compound, in series [2], the ED50 was found to be 9.39 mg/kg. For the same compound, the ED50 at 30 min was 34.5 mg/kg in series [5] and 37.2 mg/kg in series [4]. For the same compound, the “TI Myorelaxation” value in series [3] worked out at 3.67. Also, in series [6], the “TI Ataxia” value worked out at 3.97.
Take `CCC1CC2(C)CNC(C)(C1)C2` (stereo not drawn) [MRZ 2007, exo-3-Ethyl-1,5-dimethyl-6-azabicyclo[3.2.1]octane hydrochloride]: the Ki in series [1] is 5.46 µM. In series [7] (setting [8]), the concentration for half-maximal inhibition (IC50) stood at 6.77 µM. Besides, in series [2], the ED50 is above 50 mg/kg. In addition, the 50% effective dose (ED50) at 30 min was above 50 mg/kg in series [5] and 50 mg/kg in series [4].
On to `CC1CC2(C)CNC(C)(C1)C2` (stereo not drawn) [MRZ 2011, 1,exo-3,5-Trimethyl-6-azabicyclo[3.2.1]octane hydrochloride], for which the Ki in series [1] was 15.8 µM.
`CCC12CC(C)(C)CC(C)(CN1)C2` (centres unmarked) [MRZ 2022, 5-Ethyl-1,3,3-trimethyl-6-azabicyclo[3.2.1]octane hydrochloride] returned a Ki in series [1] of 14.4 µM. For the same compound, inhibition in series [7] was half-maximal at 13.9 µM (IC50).
For the compound `CCC12CC(C)CC(C)(CN1)C2` (stereo not drawn) [MRZ 2023, 5-Ethyl-1,exo-3-dimethyl-6-azabicyclo[3.2.1]octane hydrochloride], in series [1], affinity was put at a Ki of 23.3 µM. Further, the IC50 in series [7] (setting [8]) came out at 16.1 µM. Besides, the ED50 in series [2] is above 30 mg/kg. In addition, the ED50 at 30 min in series [5] and in series [4] was above 30 mg/kg each time.
Regarding `CC1CC2(C)CC(C)(C1)C(c1ccccc1)N2` (stereo not drawn) [MRZ 2028, 1,exo-3,5-Trimethyl-exo,endo-7-phenyl-6-azabicyclo[3.2.1]octane hydrochloride], affinity in series [1] was put at a Ki of 3.21 µM. Further, the IC50 in series [7] (setting [8]) amounted to 10.3 µM.
In series [1], `CC1CC2(C)CC(C)(C1)C(C)N2` (stereo not drawn) [MRZ 2029, 1,exo-3,5,exo,endo-7-Tetramethyl-6-azabicyclo[3.2.1]octane hydrochloride] gave a Ki of 13.2 µM. Moreover, the concentration for half-maximal inhibition (IC50) in series [7] (setting [8]) came out at 36.1 µM. In addition, in series [2], the median effective dose (ED50) was above 50 mg/kg. The 50% effective dose (ED50) at 30 min in series [5] and in series [4] was above 50 mg/kg throughout.
Turning to “(+)-5-methyl-10,11-dihydro-5H-dibenzocyclohepten-5,10-imine maleate [[^3H]-(+)-MK-801, reference compound]”, the Kd in series [1] (read-out: Kd of radioligand by Scatchard analysis) came out at 0.0046 µM.

Broadly, the Ki is a measure of affinity in units of concentration, obtained from inhibition or displacement. In general, ED50 refers to the dose that gives a 50% effect, or the effect in half of the subjects. As usually defined, the IC50 is the concentration that inhibits the measured activity by half. Broadly, the Kd is the constant that tells how readily two partners part at equilibrium.
